These results are taken from patent US20240109865A1, “INDAZOLE COMPOUNDS AS KINASE INHIBITORS” (TYRA BIOSCIENCES, INC., priority 2020, published 2024).

What all share (assay): Kinase assay, binding constants (Kd), kinase-tagged T7 phage, qPCR
Background: In qPCR the cycle at which signal appears reflects the starting amount.

For one assay, the target named is FGFR3 (V555M) (Homo sapiens (Human), UniProt P22607, V555M). The note with it: V555M mutant. An outline of the steps:
(§1)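 Kinase-tagged T7 phage (grown in BL21-derived E. coli) competed with test compound for immobilized biotinylated ligand on streptavidin beads. Kds came from an 11-point 3-fold dilution series at 0.9% final DMSO. Bound kinase was eluted with non-biotinylated ligand and quantified by qPCR, with Hill slope fixed at −1.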

Another assay deals with FGFR2 (Homo sapiens (Human), UniProt P21802). An outline of the steps: as §1
Sequence of FGFR2 (P21802 22-821): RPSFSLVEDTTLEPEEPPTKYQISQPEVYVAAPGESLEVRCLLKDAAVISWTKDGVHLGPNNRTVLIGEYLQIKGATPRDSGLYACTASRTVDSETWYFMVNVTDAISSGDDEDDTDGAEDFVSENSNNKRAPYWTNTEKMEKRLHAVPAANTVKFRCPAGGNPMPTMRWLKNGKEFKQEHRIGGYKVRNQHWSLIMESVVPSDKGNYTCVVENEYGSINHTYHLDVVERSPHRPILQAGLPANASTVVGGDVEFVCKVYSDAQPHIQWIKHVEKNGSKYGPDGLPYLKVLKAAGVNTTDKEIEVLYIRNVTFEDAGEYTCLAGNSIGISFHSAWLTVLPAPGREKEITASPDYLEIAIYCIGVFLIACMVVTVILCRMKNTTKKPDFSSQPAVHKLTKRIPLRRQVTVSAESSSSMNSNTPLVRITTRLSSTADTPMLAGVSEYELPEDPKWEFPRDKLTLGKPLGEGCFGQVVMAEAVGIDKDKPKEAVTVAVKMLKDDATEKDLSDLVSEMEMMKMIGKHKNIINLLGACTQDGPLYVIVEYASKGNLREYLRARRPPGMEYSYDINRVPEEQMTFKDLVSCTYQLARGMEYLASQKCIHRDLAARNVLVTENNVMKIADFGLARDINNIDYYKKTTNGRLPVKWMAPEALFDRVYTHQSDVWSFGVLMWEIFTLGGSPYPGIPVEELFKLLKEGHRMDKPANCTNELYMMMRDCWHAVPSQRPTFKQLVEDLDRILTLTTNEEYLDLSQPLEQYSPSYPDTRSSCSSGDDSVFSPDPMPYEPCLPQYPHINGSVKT
For another assay, the target named is FGFR4 (Homo sapiens (Human), UniProt P22455). A digest of the protocol:
as §1

The target of another assay is FGFR1 (Homo sapiens (Human), UniProt P11362). An outline of the steps: as §1
Sequence of FGFR1 (P11362 22-822): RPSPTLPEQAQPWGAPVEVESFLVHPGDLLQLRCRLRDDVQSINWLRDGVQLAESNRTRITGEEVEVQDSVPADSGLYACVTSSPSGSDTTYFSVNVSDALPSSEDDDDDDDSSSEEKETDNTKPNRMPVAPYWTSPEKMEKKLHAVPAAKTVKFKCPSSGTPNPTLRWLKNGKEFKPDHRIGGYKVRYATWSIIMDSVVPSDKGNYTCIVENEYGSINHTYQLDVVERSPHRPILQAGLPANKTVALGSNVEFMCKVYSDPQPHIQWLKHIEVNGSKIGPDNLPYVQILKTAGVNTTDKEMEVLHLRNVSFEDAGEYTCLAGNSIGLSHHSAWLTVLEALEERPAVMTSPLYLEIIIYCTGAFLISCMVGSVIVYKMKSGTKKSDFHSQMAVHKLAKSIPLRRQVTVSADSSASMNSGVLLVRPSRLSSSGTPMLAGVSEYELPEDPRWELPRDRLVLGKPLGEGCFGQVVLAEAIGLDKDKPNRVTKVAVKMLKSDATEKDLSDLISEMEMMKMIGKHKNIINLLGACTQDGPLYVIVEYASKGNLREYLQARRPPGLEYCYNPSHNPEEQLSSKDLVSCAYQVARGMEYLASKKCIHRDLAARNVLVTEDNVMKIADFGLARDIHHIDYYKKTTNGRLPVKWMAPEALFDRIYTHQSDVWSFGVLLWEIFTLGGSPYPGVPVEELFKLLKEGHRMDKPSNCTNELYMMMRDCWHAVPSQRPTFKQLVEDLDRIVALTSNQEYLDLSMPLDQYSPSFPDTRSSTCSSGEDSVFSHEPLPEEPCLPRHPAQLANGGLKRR
In another assay the target is FGFR3 (Homo sapiens (Human), UniProt P22607). An outline of the steps:
as §1

Sequence of FGFR3 (P22607 23-806): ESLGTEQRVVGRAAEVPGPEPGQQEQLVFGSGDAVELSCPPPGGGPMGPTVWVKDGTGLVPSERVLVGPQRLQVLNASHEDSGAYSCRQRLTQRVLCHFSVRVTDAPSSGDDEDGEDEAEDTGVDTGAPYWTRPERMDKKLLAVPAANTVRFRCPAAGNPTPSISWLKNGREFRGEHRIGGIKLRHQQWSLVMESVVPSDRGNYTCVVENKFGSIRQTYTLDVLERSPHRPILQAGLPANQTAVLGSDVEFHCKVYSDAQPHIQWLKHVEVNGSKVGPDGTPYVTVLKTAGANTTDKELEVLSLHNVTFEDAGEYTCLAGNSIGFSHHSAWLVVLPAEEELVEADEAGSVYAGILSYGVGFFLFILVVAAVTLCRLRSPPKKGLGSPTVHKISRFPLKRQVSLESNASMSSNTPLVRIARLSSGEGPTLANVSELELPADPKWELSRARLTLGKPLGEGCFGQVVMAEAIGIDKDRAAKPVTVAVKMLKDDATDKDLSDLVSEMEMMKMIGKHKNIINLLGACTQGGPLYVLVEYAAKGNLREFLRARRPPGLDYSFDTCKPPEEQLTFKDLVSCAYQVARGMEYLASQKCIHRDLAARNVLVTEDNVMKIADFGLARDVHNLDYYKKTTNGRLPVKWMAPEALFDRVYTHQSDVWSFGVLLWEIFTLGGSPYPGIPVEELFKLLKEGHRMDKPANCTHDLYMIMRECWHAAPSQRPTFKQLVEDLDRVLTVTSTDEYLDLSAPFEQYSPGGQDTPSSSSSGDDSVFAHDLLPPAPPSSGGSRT
Sequence of FGFR3 (V555M) (P22607 23-806 V555M): as the sequence (P22607 23-806) above, with V533M counted along it
Sequence of FGFR4 (P22455 22-802): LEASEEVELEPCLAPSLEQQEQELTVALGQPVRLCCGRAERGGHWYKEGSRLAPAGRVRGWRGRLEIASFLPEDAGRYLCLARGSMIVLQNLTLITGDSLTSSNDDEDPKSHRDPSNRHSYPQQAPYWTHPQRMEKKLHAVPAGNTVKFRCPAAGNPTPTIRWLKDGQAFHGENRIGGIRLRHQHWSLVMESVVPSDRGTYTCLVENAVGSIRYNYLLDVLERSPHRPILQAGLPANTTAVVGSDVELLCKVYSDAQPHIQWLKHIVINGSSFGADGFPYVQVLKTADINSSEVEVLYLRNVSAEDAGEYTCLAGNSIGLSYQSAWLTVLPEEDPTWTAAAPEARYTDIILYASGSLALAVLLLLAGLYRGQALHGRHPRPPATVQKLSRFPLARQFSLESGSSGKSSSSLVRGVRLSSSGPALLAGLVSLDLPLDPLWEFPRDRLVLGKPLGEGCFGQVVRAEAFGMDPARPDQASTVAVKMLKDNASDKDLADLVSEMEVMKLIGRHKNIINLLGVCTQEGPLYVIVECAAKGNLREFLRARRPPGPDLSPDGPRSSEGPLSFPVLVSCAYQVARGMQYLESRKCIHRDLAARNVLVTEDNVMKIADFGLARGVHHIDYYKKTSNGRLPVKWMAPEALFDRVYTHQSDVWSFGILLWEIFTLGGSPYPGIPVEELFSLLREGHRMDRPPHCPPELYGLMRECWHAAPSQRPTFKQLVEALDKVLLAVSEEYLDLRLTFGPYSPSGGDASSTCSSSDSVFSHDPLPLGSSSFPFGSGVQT

Broadly, the Kd is a measure of binding affinity in units of concentration. Low values mean tighter binding, high ones weaker binding. `C[C@@H](Oc1ccc2[nH]nc(-c3ccc(N4CCN5C[C@H](O)C[C@H]5C4)nc3)c2c1)c1c(Cl)cncc1Cl` [Example 178, (7R,8aS)-2-[5-[5-[(1R)-1-(3,5-dichloro-4-pyridyl)ethoxy]-1H-indazol-3-yl]-2-pyridyl]-3,4,6,7,8,8a-hexahydro-1H-pyrrolo[1,2-a]pyrazin-7-ol]: the dissociation constant Kd on FGFR3 (V555M), on FGFR2, on FGFR4, at FGFR1 and on FGFR3 was 1 to 20 nM in each case.

`Cc1ncc(Cl)c([C@@H](C)Oc2ccc3[nH]nc(-c4cnc(N5CC6(CNC6)C5)nc4)c3c2)c1Cl` [Example 179, 3-[2-(2,6-diazaspiro[3.3]heptan-2-yl)pyrimidin-5-yl]-5-[(1R)-1-(3,5-dichloro-2-methyl-4-pyridyl)ethoxy]-1H-indazole]: the dissociation constant Kd on FGFR3 (V555M) fell in the range of 1 to 20 nM; on FGFR2, 20 to 100 nM; at FGFR4, 1 to 20 nM; on FGFR1, 20 to 100 nM; on FGFR3 it was 1 to 20 nM.

Take `CCS(=O)(=O)N1CC2(CN(c3ccc(-c4n[nH]c5ccc(O[C@H](C)c6c(Cl)cnc(C)c6Cl)cc45)cn3)C2)C1` [Example 180, 5-[(1R)-1-(3,5-dichloro-2-methyl-4-pyridyl)ethoxy]-3-[6-(2-ethylsulfonyl-2,6-diazaspiro[3.3]heptan-6-yl)-3-pyridyl]-1H-indazole]: the dissociation constant Kd was 1 to 20 nM on FGFR3 (V555M); 20 to 100 nM at FGFR2; 20 to 100 nM at FGFR4; 20 to 100 nM at FGFR1; 1 to 20 nM on FGFR3.

For the compound `CCS(=O)(=O)N1CC2(CN(c3ncc(-c4n[nH]c5ccc(O[C@H](C)c6c(Cl)cnc(C)c6Cl)cc45)cn3)C2)C1` [Example 181, 5-[(1R)-1-(3,5-dichloro-2-methyl-4-pyridyl)ethoxy]-3-[2-(2-ethylsulfonyl-2,6-diazaspiro[3.3]heptan-6-yl)pyrimidin-5-yl]-1H-indazole], the dissociation constant (Kd) is 1 to 20 nM at FGFR3 (V555M); above 300 nM at FGFR2; 1 to 20 nM at FGFR4; 100 to 300 nM at FGFR1; 1 to 20 nM at FGFR3.

For the compound `CCOC(=O)N1CCCC2(C1)CN(c1ccc(-c3n[nH]c4ccc(O[C@H](C)c5c(C)cnnc5C)cc34)cn1)C2` [Example 182, ethyl 2-[5-[5-[(1R)-1-(3,5-dimethylpyridazin-4-yl)ethoxy]-1H-indazol-3-yl]-2-pyridyl]-2,8-diazaspiro[3.5]nonane-8-carboxylate], the dissociation constant Kd at FGFR3 (V555M) fell in the range of 1 to 20 nM; at FGFR2, 1 to 20 nM; at FGFR4, 1 to 20 nM; on FGFR1, 20 to 100 nM; at FGFR3, 1 to 20 nM.

In the case of `C[C@@H](Oc1ccc2[nH]nc(-c3ccc(N4CCN5CCC[C@H]5C4)nc3)c2c1)c1c(Cl)cncc1Cl` [Example 183, 3-[6-[(8aS)-3,4,6,7,8,8a-hexahydro-1H-pyrrolo[1,2-a]pyrazin-2-yl]-3-pyridyl]-5-[(1R)-1-(3,5-dichloro-4-pyridyl)ethoxy]-1H-indazole], the Kd on FGFR3 (V555M), on FGFR2, on FGFR4, on FGFR1 and at FGFR3 was 1 to 20 nM in each case.

For the compound `C[C@@H](Oc1ccc2[nH]nc(-c3ccc(N4CCN5CCC[C@@H]5C4)nc3)c2c1)c1c(Cl)cncc1Cl` [Example 184, 3-[6-[(8aR)-3,4,6,7,8,8a-hexahydro-1H-pyrrolo[1,2-a]pyrazin-2-yl]-3-pyridyl]-5-[(1R)-1-(3,5-dichloro-4-pyridyl)ethoxy]-1H-indazole], the dissociation constant Kd at FGFR3 (V555M), on FGFR2, at FGFR4, at FGFR1 and on FGFR3 was 1 to 20 nM in each case.

`CCOC(=O)N1CC2(C1)CN(c1ncc(-c3n[nH]c4ccc(O[C@H](C)c5c(Cl)cnc(C)c5Cl)cc34)cn1)C2` [Example 185, ethyl 6-[5-[5-[(1R)-1-(3,5-dichloro-2-methyl-4-pyridyl)ethoxy]-1H-indazol-3-yl]pyrimidin-2-yl]-2,6-diazaspiro[3.3]heptane-2-carboxylate]: the Kd at FGFR3 (V555M) is 1 to 20 nM; at FGFR2, 100 to 300 nM; at FGFR4, 1 to 20 nM; at FGFR1 it was above 300 nM; at FGFR3, 20 to 100 nM.
